# US9809562B2, “NAT10 modulators for treating or preventing laminopathies, aging and cancer” (CAMBRIDGE ENTERPRISE LIMITED, priority 2014, dated 2017)
# Structures can show the parent of a compound that is named as a salt.
# Legend:
# [1] = system: GFP-H2B expressing U2OS cells transfected with siLMNA; assay: Live imaging of GFP-H2B cells; type: cell-based, human; conditions: Compound 2 at 50 μM, independently of mitosis
# Description: U2OS cells were transfected with siLMNA for 48 hours before addition of (Compound 2) at 50 μM. Pictures were acquired every 15 minutes for 16 hours in z-stack of 0.2 μm interval with a Deltavision PersonalDV (Applied Precision, 512×512 CoolSNAP HQ2 camera) equipped with a 100× UPlanSApo/1.40 oil objective (Olympus) and controlled with SoftWoRx software (Applied Precision). Movies were then assembled from pictures with ImageJ software.
# LMNA KO U2OS cells = assay: Global protein translation by HPG incorporation (FACS), LMNA KO; type: cell-based, human; conditions: 24 h treatment, 1 h HPG
# Description: U2OS cells expressing wild type or KO LMNA were treated with Compound 2 for 24 h and incubated for 1 h with the clickable methionine analogue HPG to measure global protein translation. HPG was then clicked with an Alexa fluor 488 and global fluorescence intensity was quantified by FACS on 10 000 cells.
# [2] = In vivo toxicity, body weight change; conditions: mice, oral daily dose for 14 days
# [3] = Compound concentration in heart and muscles; type: in vivo; conditions: mice, end of the 14 days oral treatment
# Source text: Right panel of FIG. 24: measurement of Compound 2 concentration in heart and muscles of mice treated with the indicated dose, at the end of the 14 days treatment.
# [4] = system: main lysine acetyltranferase proteins (KAT); assay: In vitro specificity against lysine acetyltransferases; type: biochemical
# HGPS fibroblasts = assay: Microarray gene expression, HGPS fibroblasts; type: cell-based, human
# Description: Normal fibroblasts or HGPS fibroblasts were kept in culture for 12 population doublings with chronic treatment of 1 μM Compound 2 (top panels of FIG. 29) or transfected with siRNA against NAT10 for 3 days (bottom panels of FIG. 29). RNA was extracted and global gene expression was analysed by microarray. Volcano plots show a very high specificity of Compound 2 towards gene expression regulation of HGPS cells, with about 1000 genes affected more than 2 fold, whereas only 24 genes were affected in normal fibroblasts.
# [5] = system: cells derived from patients with Emery-Dreifuss muscular dystrophy (EDMD); assay: γH2AX in Emery-Dreifuss muscular dystrophy cells; type: cell-based, human
# Source text: FIG. 12: Remodelin improves global cellular fitness of HGPS cells. A) NAT10 depletion in normal fibroblasts and HGPS AG11498 cells observed by western blotting, and showing that siNAT10 has no effect on Lamin A/C expression and processing. B) IF images showing nuclear shape improvement and decreased numbers of γH2AX foci in HGPS cells upon Remodelin treatment. Scale bars: 10 μm. C) Western Blotting analysis showing that Remodelin decreases γH2AX levels in both HGPS cell lines tested. D) IF images showing nuclear shape improvement and decreased intensity of γH2AX staining in Emery-Dreifuss muscular dystrophy cells (EDMD) upon Remodelin treatment. Scale bars: 10 μm. E) Western Blotting analysis showing that Remodelin decreases γH2AX levels in EDMD. F) Western blotting analysis showing the effect of Remodelin on the p53 and DNA damage signalling pathways in HGPS AG11498 cells. G) Representative IF images of H3K9me3 or SUN1 patterns quantified in H). Scale bars: 20 μm. […]
# Total cell extracts were prepared by scraping cells in SDS lysis buffer (4% SDS, 20% glycerol, and 120 mM Tris-HCl, pH 6.8), boiling for 5 minutes at 95° C., followed by 10 strokes through a 25-gauge needle. […] Detection and quantification was performed with an imager (Odyssey; LI-COR Biosciences). […]
# SUN1 in siLMNA cells = assay: SUN1 expression and localization in siLMNA cells; type: cell-based, human
# Description: Cells were washed with PBS and fixed for 20 minutes with 2% PFA in PBS. Cells were permeabilised for 5 minutes with PBS/0.2% Triton X-100, and blocked with PBS/0.2% Tween 20 (PBS-T) containing 5% BSA. Coverslips were incubated for 1 hour with primary antibodies and for 30 minutes with appropriate secondary antibodies coupled to Alexa Fluor 488 or 594 fluorophores (Life Technologies), before being incubated with 2 μg/ml DAPI. Pictures were acquired with a FluoView 1000 confocal microscope (Olympus). For high resolution imaging, z-stacks were acquired with a Deltavision PersonalDV (Applied Precision, 1024×1024 CoolSNAP HQ2 camera, z-stack of 0.2 μm interval) or with a Deltavision OMX V3 in conventional mode (Applied Precision, 512×512 Cascade II cameras (Photometrics), z-stack of 0.125 μm interval) both equipped with a 100× UPlanSApo/1.40 oil objective (Olympus) and controlled with SoftWoRx software (Applied Precision). Deconvolutions were then performed with SoftWoRx (Applied Precision) in conservative mode. The different channels were acquired sequentially.
# tubulin in U2OS cells = assay: Analysis of soluble or polymerised tubulin; type: cell-based, human; conditions: 5 μM Remodelin 16 hours
# Description: U2OS cells pre-treated with 5 μM Remodelin for 16 hours or with 10 μM nocodazole for 8 hours, were lysed in MT Stabilization Buffer (MSB) (85 mM PIPES [pH 6.9], 1 mM EGTA, 1 mM MgCl2, 2M glycerol, 0.5% Triton with 4 μg/ml Taxol). Lysates were kept at 4° C. for 2 minutes and then centrifuged for 10 minutes at 13,000 rpm. Supernatants, representing the soluble fraction of proteins, were transferred to new tubes, and Laemmli buffer was added. Pellets, representing the polymerized fraction of proteins, were washed once in MSB without Triton, and then resuspended in Laemmli buffer. Equal amounts of lysate were loaded on a gradient gel.
# [6] = system: siLMNA cells and HGPS cells; assay: Microtubules regrowth assay; type: cell-based, human; conditions: t=15 minutes after cold depolymerization, 5 to 10 μM Remodelin 16 hours
# Description: 48 hours after siRNA transfections, microtubules were depolymerized by cold treatment at 4° C. for 1 hour in cells pre-treated or not with 5 to 10 μM Remodelin for 16 hours. Cold medium was replaced by pre-warmed medium and cells were incubated at 37° C. for 5 or 15 minutes to allow microtubules nucleation and anchorage respectively. Cells were fixed in PFA and stained with anti α-Tubulin antibody as described in the immunofluorescence procedure.
Compound,time to complete nuclear shape rescue [1] [h],global protein translation (HPG fluorescence intensity) (LMNA KO U2OS cells),tolerability (body weight change) [2],compound concentration in heart and muscles [3],inhibition of KAT activity towards histone substrates [4],"number of genes affected more than 2 fold (HGPS fibroblasts; HGPS fibroblasts, 1 μM, 12 population doublings)","genes misregulated in HGPS that are rescued (HGPS fibroblasts; HGPS vs normal fibroblasts, Venn diagrams)",γH2AX levels in EDMD cells [5],expression and localization of SUN1 (SUN1 in siLMNA cells),tubulin assembly into polymers (tubulin in U2OS cells),anchorage of microtubules to centrosomes [6]
"Clc1ccc(-c2csc(NN=C3CCCC3)n2)cc1 [Compound 2, 4-(4-Chlorophenyl)-2-(2-cyclopentylidenehydrazinyl)thiazole Hydrochloride Salt]",≤ 12,strong reduction of global protein translation,"well tolerated orally, up to high doses of 400 mg/kg/day, without significant decrease of body weight",very high concentration of the compound in both heart and muscles,does not inhibit the activity of the main lysine acetyltranferase proteins (KAT),about 1000 genes,about half of the genes that are misregulated in HGPS compared to normal fibroblasts are rescued,–,–,–,–
"N#Cc1ccc(-c2csc(NN=C3CCCC3)n2)cc1 [Compound 1, 4-(4-Cyanophenyl)-2-(2-cyclopentylidenehydrazinyl)thiazole]",–,–,–,–,–,–,–,decreased levels of γH2AX,does not detectably affect the expression and localization of SUN1,did not affect Golgi apparatus integrity (FIG. 13C) or tubulin assembly into polymers,anchorage of microtubules to centrosomes was clearly affected
